Laboratory results as given in publication PMC6819783, “Cohnella sp. A01 laccase: thermostable, detergent resistant, anti-environmental and industrial pollutants enzyme” (Heliyon, 2019).

System: T1, Cohnella sp. A01 laccase
T1 construct: gene multicopper oxidase; recombinant in E. coli BL21, pET-26b(+) NcoI/XhoI, His-tagged, Ni-Sepharose purified
Experiment: oxidation followed at […] nm, Michaelis-Menten fit
Assay type: biochemical
Conditions: 0.3-2.5 mM DMP; phosphate buffer; assay pH 8 and 90 °C (optimum; not restated for the kinetics)

Structure (SMILES): COc1cccc(OC)c1O [2,6-dimethoxyphenol]
- Km: 686 µM
